Data from ChEMBL document CHEMBL4118290, “Synthesis of 1,5-Anhydro-d-fructose derivatives and evaluation of their inflammasome inhibitors” (Bioorg Med Chem, 2018).
The source made the active and inactive calls. The calls are words filed in the database; no cut-off is given here.

Assays:
[1] = target: NACHT, LRR and PYD domains-containing protein 3 (Mus musculus, UniProt Q8R4B8); assay: (§1) Inhibition of nigericin-induced NLRP3 inflammasome activation in C57BL/6 mouse bone marrow derived macrophages assessed as reduction in LPS-stimulated IL-1beta secretion incubated for 1 hr followed by nigericin addition measured after 1 hr by ELISA
Sequence of NACHT, LRR and PYD domains-containing protein 3 (Mus musculus, UniProt Q8R4B8) (Q8R4B8 whole entry, the tested form may be a part): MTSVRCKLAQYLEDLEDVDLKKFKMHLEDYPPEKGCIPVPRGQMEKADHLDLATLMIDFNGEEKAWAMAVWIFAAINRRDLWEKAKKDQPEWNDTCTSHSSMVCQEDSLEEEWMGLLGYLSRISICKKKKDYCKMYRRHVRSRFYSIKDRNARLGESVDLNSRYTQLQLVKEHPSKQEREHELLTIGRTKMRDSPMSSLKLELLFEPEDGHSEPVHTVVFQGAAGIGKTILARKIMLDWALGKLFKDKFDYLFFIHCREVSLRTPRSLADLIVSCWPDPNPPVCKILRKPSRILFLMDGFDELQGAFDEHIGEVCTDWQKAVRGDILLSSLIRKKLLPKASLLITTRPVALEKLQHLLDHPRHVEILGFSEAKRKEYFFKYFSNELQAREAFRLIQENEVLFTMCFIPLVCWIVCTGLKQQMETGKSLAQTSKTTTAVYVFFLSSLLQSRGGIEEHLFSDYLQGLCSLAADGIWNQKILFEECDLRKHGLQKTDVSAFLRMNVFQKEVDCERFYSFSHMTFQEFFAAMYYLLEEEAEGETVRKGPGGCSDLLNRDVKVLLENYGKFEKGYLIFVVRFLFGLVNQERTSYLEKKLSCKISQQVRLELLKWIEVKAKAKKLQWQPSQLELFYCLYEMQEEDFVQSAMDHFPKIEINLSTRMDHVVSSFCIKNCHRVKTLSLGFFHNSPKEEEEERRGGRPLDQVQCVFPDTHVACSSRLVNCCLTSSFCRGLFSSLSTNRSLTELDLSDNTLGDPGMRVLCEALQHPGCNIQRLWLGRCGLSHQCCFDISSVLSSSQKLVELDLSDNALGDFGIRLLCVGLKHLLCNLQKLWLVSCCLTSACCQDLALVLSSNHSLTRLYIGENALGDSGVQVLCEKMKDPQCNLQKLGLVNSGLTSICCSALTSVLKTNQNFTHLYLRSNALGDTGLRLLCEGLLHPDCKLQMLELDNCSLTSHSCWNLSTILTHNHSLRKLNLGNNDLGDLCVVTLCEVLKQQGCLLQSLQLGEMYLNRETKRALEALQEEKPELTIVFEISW

[2] = target: NACHT, LRR and PYD domains-containing protein 3 (Mus musculus) (UniProt Q8R4B8); assay: Inhibition of nigericin-induced NLRP3-dependent pyroptosis in C57BL/6 mouse bone marrow derived macrophages assessed as restoration of LPS-stimulated decrease in intracellular ATP level incubated for 1 hr followed by nigericin addition measured after 1 hr by cell titer-glo reagent based luminescence assay
Sequence of NACHT, LRR and PYD domains-containing protein 3 (Mus musculus) (Q8R4B8 whole entry, the tested form may be a part): as above

[3] = target: T1, NACHT, LRR and PYD domains-containing protein 3 (Homo sapiens, UniProt Q96P20); assay: Inhibition of nigericin-induced NLRP3 inflammasome activation in PMA-differentiated human THP1 cells assessed as reduction in LPS-stimulated IL-1beta secretion incubated for 1 hr prior to stimulation with nigericin for 1 hr by quanti-blue based SEAP reporter gene assay
T1 sequence (Q96P20 whole entry, the tested form may be a part): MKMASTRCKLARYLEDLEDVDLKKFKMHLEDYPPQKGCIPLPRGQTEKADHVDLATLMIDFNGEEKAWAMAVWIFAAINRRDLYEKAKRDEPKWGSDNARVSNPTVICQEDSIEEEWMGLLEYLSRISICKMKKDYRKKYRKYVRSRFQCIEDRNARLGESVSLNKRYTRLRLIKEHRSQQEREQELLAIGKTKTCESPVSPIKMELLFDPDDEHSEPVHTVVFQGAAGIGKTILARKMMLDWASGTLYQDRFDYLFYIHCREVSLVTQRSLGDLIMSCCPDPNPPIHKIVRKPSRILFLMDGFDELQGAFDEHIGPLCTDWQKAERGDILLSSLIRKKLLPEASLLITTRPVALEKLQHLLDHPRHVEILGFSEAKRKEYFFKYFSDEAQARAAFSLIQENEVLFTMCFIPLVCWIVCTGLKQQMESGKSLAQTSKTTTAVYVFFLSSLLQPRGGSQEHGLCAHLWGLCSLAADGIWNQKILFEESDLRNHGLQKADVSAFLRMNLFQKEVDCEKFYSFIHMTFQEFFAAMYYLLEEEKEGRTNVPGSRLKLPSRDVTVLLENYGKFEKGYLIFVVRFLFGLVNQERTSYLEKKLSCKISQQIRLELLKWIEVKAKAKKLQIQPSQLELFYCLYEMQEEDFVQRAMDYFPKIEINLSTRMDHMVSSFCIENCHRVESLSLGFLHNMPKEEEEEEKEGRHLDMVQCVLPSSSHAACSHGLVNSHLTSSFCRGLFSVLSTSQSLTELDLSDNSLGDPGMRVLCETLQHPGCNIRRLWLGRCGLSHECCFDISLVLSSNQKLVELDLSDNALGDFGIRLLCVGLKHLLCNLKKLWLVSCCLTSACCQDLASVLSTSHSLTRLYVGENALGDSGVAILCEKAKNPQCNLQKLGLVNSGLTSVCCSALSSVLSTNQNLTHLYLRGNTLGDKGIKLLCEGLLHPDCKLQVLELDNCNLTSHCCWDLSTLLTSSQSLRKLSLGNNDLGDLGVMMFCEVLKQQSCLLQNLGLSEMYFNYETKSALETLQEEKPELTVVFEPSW

[4] = target: NACHT, LRR and PYD domains-containing protein 3 (Mus musculus) (UniProt Q8R4B8); assay: as §1
[5] = target: NACHT, LRR and PYD domains-containing protein 3 (Mus musculus) (UniProt Q8R4B8); assay: as §1, with “LPS-stimulated processing of pro-IL-1beta to mature” for “LPS-stimulated”, “in supernatant at 100 uM” for “secretion”, “Western blot analysis” for “ELISA”
[6] = target: NACHT, LRR and PYD domains-containing protein 3 (Mus musculus) (UniProt Q8R4B8); assay: as §1, with “LPS-stimulated processing of pro-IL-1beta to mature” for “LPS-stimulated”, “in cell lysate at 100 uM” for “secretion”, “Western blot analysis” for “ELISA”
[7] = target: NACHT, LRR and PYD domains-containing protein 3 (Mus musculus) (UniProt Q8R4B8); assay: as §1, with “LPS-stimulated processing of pro-IL-1beta to mature” for “LPS-stimulated”, “in supernatant at 6.8 mM” for “secretion”, “Western blot analysis” for “ELISA”
[8] = target: NACHT, LRR and PYD domains-containing protein 3 (Mus musculus) (UniProt Q8R4B8); assay: as §1, with “LPS-stimulated processing of pro-IL-1beta to mature” for “LPS-stimulated”, “in cell lysate at 6.8 mM” for “secretion”, “Western blot analysis” for “ELISA”
[9] = target: T1, NACHT, LRR and PYD domains-containing protein 3; assay: (§2) Inhibition of nigericin-induced NLRP3 inflammasome activation in PMA-differentiated human THP1 cells assessed as reduction in LPS-stimulated processing of pro-IL-1beta to mature IL-1beta in supernatant at 3.4 mM incubated for 1 hr followed by nigericin addition measured after 1 hr by Western blot analysis
[10] = target: T1, NACHT, LRR and PYD domains-containing protein 3; assay: as §2, with “cell lysate” for “supernatant”
[11] = target: T1, NACHT, LRR and PYD domains-containing protein 3; assay: Inhibition of nigericin-induced NLRP3 inflammasome activation in PMA-differentiated human THP1 cells assessed as reduction in LPS-stimulated IL-1beta secretion at 60 mM incubated for 1 hr prior to stimulation with nigericin for 1 hr by ELISA

IC50 [1] [µM] | inhibition [2] | IC50 [3] [µM] | inhibition [4] | Compound | other results
3.6 | Dose-dependent effect | 3.6 | – | CCCC(=O)OC[C@@H]1C=CC(=O)CO1 | –
16 | Dose-dependent effect | – | Dose-dependent effect | O=C1C=C[C@@H](CO)OC1 | inhibition [5]: Active; inhibition [6]: Active
1 | Dose-dependent effect | 3.7 | – | CC(=O)OC1=C(F)C(OC(C)=O)[C@@H]2CO[C@H]1O2 (stereo partly specified) | –
3.2 | Dose-dependent effect | 3.7 | – | CC(=O)OC[C@@H]1C=C(F)C(=O)CO1 | –
1600 | Dose-dependent effect | 2300 | Dose-dependent effect | O=C1CO[C@H](CO)[C@@H](O)C1 | inhibition [7]: Active; inhibition [8]: Active; inhibition [9]: Active; inhibition [10]: Active
1.2 | – | 6.6 | – | O=C1C=C[C@H]2CO[C@@H]1O2 | –
5.7 | Dose-dependent effect | 4.3 | – | CC(=O)OC[C@@H]1C=CC(=O)CO1 | –
29000 | – | – | Dose-dependent effect | O=C1CO[C@H](CO)[C@@H](O)[C@@H]1O | inhibition [11]: inactive
0.8 | Dose-dependent effect | 4.8 | – | O=C1C(F)=C[C@@H]2CO[C@H]1O2 (single isomer, unassigned) | –
8.4 | Dose-dependent effect | 5.1 | – | CCCCCCCC(=O)OC[C@@H]1C=CC(=O)CO1 | –
